Publication PMC12865225 (Clinical and Translational Science, 2026)

Target: T1, OATP1B1 (Homo sapiens, UniProt Q9Y6L6)
T1 construct: expressed in transfected cells; host or cells: HEK293 (recombinant baculovirus-mediated transduction)
T1 sequence (Q9Y6L6 1-691): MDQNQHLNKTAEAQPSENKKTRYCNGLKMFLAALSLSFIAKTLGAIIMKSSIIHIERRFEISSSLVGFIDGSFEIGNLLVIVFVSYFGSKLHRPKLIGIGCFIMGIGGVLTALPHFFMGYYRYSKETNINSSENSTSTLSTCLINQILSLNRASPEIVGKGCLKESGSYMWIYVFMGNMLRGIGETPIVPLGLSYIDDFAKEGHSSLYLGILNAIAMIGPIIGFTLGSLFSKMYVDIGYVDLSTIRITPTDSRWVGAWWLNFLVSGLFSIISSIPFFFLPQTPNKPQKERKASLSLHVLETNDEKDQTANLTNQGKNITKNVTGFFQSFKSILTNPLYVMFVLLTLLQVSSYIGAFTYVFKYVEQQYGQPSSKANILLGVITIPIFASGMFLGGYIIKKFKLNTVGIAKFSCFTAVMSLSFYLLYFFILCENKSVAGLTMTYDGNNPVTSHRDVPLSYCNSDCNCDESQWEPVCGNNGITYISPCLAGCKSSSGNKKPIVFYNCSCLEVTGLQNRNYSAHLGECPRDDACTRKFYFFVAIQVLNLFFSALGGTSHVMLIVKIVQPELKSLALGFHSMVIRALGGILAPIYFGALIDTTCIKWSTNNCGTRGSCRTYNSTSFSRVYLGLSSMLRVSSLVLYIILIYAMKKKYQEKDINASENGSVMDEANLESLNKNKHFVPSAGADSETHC
Test: Uptake transport assay in OATP1B1-expressing HEK293 cells
Type: cell-based
Details: for transport by OATP1B1: 2 and 50 μM, 10 min
Experimental: The human transporters OATP1B1, OATP1B3, OATP2B1, and OAT1‐OAT4 and a negative control protein (enhanced yellow fluorescent protein, eYFP) were transiently expressed in human embryonic kidney 293 (HEK293) cells by recombinant baculovirus‐mediated transduction. Baculoviruses carrying human genes for the transporters were prepared as reported previously. HEK293 cells were cultured in DMEM containing 10% fetal bovine serum at 37°C and 5% CO2 and passaged two to three times per week. For the transport studies, 0.05 × 10^6 cells for 48‐well plates (OATPs) or 0.06 × 10^6 cells for 24‐well plates (OATs) were seeded onto cell‐culture treated well plates coated with poly‐D‐lysine. After 1 day, cells were transduced to produce recombinant proteins by changing media to DMEM containing 30 μL (48‐well plates) or 60 μL (24‐well plates) of recombinant baculovirus and 3 mM (OATs) or 5 mM (OATPs) sodium butyrate in a total media volume of 500 μL. The cells were cultured for a further 2 days before the transport assays.
For the transport studies, media were removed and cells were washed once with warm transport uptake buffer (TP‐buffer—pH 7.4 HBSS with 25 mM HEPES and 4 mM sodium bicarbonate). Each experiment included triplicate (OATP) or duplicate (OAT) samples for every test condition. The uptake was started by removing liquid from wells and applying warm TP‐buffer (200 μL for 24‐well plates or 125 μL for 48‐well plates) containing a test compound to cells. Transport assays were terminated after a pre‐specified incubation time (reported in figure legends) by removing substrate solution and washing cells three times with cold TP‐buffer (300 μL for 48‐well plates and 400 μL for 24‐well plates). For the liquid chromatography mass spectrometry (LC–MS) analysis, compounds were extracted from cells with 125 μL (48‐well plates) or 250 μL (24‐well plates) of an ultrapure‐water solution containing 75% methanol and 0.1% formic acid, shaking at 250 RPM for 30 min. […] Samples were transferred to well plates, centrifuged at 3000 g for 30 min, and transferred to a new well plate for the analysis.
Equation (2) (the Michaelis–Menten equation) was fit to the transport kinetic assay data. […] (2) Uptake=Vmax×S/Km+S

| Structure (SMILES) | transport by OATP1B1 | Km (uptake, 2 min) | Vmax (pmol/106 cells/min) OATP1B1 (uptake, 2 min) |
| --- | --- | --- | --- |
| Cc1onc(-c2c(F)cccc2Cl)c1C(=O)N[C@@H]1C(=O)N2[C@@H]1SC(C)(C)[C@@H]2C(=O)O [Flucloxacillin] | transported | 10 to 18 µM | 23.5 pmol/106 cells/min |
| Cc1onc(-c2c(Cl)cccc2Cl)c1C(=O)N[C@@H]1C(=O)N2[C@@H]1SC(C)(C)[C@@H]2C(=O)O [Dicloxacillin] | transported | – | 15.9 pmol/106 cells/min |
